Experiments:
Test in all cases: combination Emax (second highest fraction inhibited in the dose matrix, 72 h); higher = more inhibition; extreme values may be limits of the assay
A204 (Rhabdomyosarcoma) = test system: A204 (Rhabdomyosarcoma)
Procedure, shortened: (§1)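 Cell lines in DMEM/F12 or RPMI with 10% FBS were plated in 1536-well plates, held 24 hours at 37°C, 5% CO2, then given two-drug dose matrices for 72 hours (DMSO typically 0.2%). Viability was read by CellTiter-Glo 2.0 luminescence and scaled as inhibition from 0 (vehicle wells) to 1 (blank wells). Combination Emax is the second-highest inhibition in the matrix; Bliss excess is observed combination effect minus expected EA + EB − EA·EB, EA and EB being single-agent effects.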

[1] = test system: Jurkat (T-Lymphoblastic Leukemia)
Procedure, shortened: as §1

[2] = test system: NCI-H716 (Colorectal Carcinoma)
Procedure, shortened: as §1

[3] = test system: UACC-812 (Breast Carcinoma)
Procedure, shortened: as §1

[4] = test system: KYSE-140 (Esophageal Squamous Cell Carcinoma)
Procedure, shortened: as §1

[5] = test system: OACp4C (Esophageal Adenocarcinoma)
Procedure, shortened: as §1

[6] = test system: ESO26 (Esophageal Adenocarcinoma)
Procedure, shortened: as §1

A101D (Melanoma) = test system: A101D (Melanoma)
Procedure, shortened: as §1

[7] = test system: JVM-2 (B-Cell Non-Hodgkin's Lymphoma)
Procedure, shortened: as §1

[8] = test system: JIMT-1 (Breast Carcinoma)
Procedure, shortened: as §1

[9] = test system: A253 (Head and Neck Carcinoma)
Procedure, shortened: as §1

KP-N-YN (Neuroblastoma) = test system: KP-N-YN (Neuroblastoma)
Procedure, shortened: as §1

SMILES	combination Emax (A204 (Rhabdomyosarcoma))	combination Emax [1]	combination Emax [2]	combination Emax [3]	combination Emax [4]	combination Emax [5]	combination Emax [6]	combination Emax (A101D (Melanoma))	combination Emax [7]	combination Emax [8]	combination Emax [9]	combination Emax (KP-N-YN (Neuroblastoma))
CN(CCO)CC[C@H](CSc1ccccc1)Nc1ccc(S(=O)(=O)NC(=O)c2ccc(N3CCC([C@@H](O)c4ccccc4-c4ccc(Cl)cc4)CC3)cc2)cc1S(=O)(=O)C(F)(F)F [AZD4320] + C1CN(CCC1(C(=O)N[C@@H](CCO)C2=CC=C(C=C2)Cl)N)C3=NC=NC4=C3C=CN4 [Capivasertib] (first compound max 1 µM, 7x7, partner max 3 µM)	0.266	0.883	0.393	0.226	0.664	0.954	0.345	0.429	0.702	0.2	0.499	–
CN(CCO)CC[C@H](CSc1ccccc1)Nc1ccc(S(=O)(=O)NC(=O)c2ccc(N3CCC([C@@H](O)c4ccccc4-c4ccc(Cl)cc4)CC3)cc2)cc1S(=O)(=O)C(F)(F)F [AZD4320] + C=CCn1c(=O)c2cnc(Nc3ccc(N4CCN(C)CC4)cc3)nc2n1-c1cccc(C(C)(C)O)n1 [AZD1775] (first compound max 1 µM, partner max 1 µM)	0.334	0.993	0.449	0.14	0.849	0.938	0.709	–	0.981	0.842	0.531	–
CN(CCO)CC[C@H](CSc1ccccc1)Nc1ccc(S(=O)(=O)NC(=O)c2ccc(N3CCC([C@@H](O)c4ccccc4-c4ccc(Cl)cc4)CC3)cc2)cc1S(=O)(=O)C(F)(F)F [AZD4320] + CCN(CCO)CCCOc1ccc2c(Nc3cc(CC(=O)Nc4cccc(F)c4)[nH]n3)ncnc2c1 [AZD2811] (first compound max 1 µM, 7x7, partner max 1 µM)	0.261	0.512	0.298	0.12	0.334	0.863	0.112	0.667	0.801	0.319	0.467	–
CN(CCO)CC[C@H](CSc1ccccc1)Nc1ccc(S(=O)(=O)NC(=O)c2ccc(N3CCC([C@@H](O)c4ccccc4-c4ccc(Cl)cc4)CC3)cc2)cc1S(=O)(=O)C(F)(F)F [AZD4320] + C[C@@H]1COCCN1C2=NC(=NC(=C2)C3(CC3)[S@](=N)(=O)C)C4=C5C=CNC5=NC=C4 [AZD6738] (first compound max 1 µM, 7x7, partner max 10 µM)	0.438	0.955	0.647	0.275	0.878	0.95	0.628	0.891	0.908	0.871	0.892	–
CN(CCO)CC[C@H](CSc1ccccc1)Nc1ccc(S(=O)(=O)NC(=O)c2ccc(N3CCC([C@@H](O)c4ccccc4-c4ccc(Cl)cc4)CC3)cc2)cc1S(=O)(=O)C(F)(F)F [AZD4320] + C[C@@H](Nc1cc(F)cc(F)c1)c1cc(C(=O)N(C)C)cc2c(=O)cc(N3CCOCC3)oc12 [AZD8186] (first compound max 1 µM, 7x7, partner max 3 µM)	0.451	0.842	0.285	–	0.401	0.916	0.325	0.781	0.892	0.316	0.437	–
CN(CCO)CC[C@H](CSc1ccccc1)Nc1ccc(S(=O)(=O)NC(=O)c2ccc(N3CCC([C@@H](O)c4ccccc4-c4ccc(Cl)cc4)CC3)cc2)cc1S(=O)(=O)C(F)(F)F [AZD4320] + Cc1cc2ncnn2cc1Nc1ncc2c(n1)n(C1CCOCC1)c(=O)n2C [AZD7648] (first compound max 1 µM, 7x7, partner max 10 µM)	0.273	0.655	0.209	0.15	0.203	0.906	0.0775	0.452	0.642	0.225	0.149	–
CN(CCO)CC[C@H](CSc1ccccc1)Nc1ccc(S(=O)(=O)NC(=O)c2ccc(N3CCC([C@@H](O)c4ccccc4-c4ccc(Cl)cc4)CC3)cc2)cc1S(=O)(=O)C(F)(F)F [AZD4320] + Cn1cnc2c(F)c(Nc3ccc(Br)cc3Cl)c(C(=O)NOCCO)cc21 [Selumetinib] (first compound max 1 µM, 7x7, partner max 3 µM)	0.325	0.798	0.582	0.238	0.289	0.967	0.3	0.781	0.889	0.268	0.523	–
COc1nnc2ccc(N3CCC(c4ccc(OCCN5CCN(C)C(=O)[C@H]5C)cc4)CC3)nn12 [AZD5153] + CN(CC[C@H](CSC1=CC=CC=C1)NC2=C(C=C(C=C2)S(=O)(=O)NC(=O)C3=CC=C(C=C3)N4CCC(CC4)[C@H](C5=CC=CC=C5C6=CC=C(C=C6)Cl)O)S(=O)(=O)C(F)(F)F)CCO [AZD4320] (first compound max 1 µM, 7x7, partner max 1 µM)	0.464	0.975	0.754	–	0.695	0.918	0.754	0.79	0.866	0.384	0.328	–
Cc1cc2ncnn2cc1Nc1ncc2c(n1)n(C1CCOCC1)c(=O)n2C [AZD7648] + C=CCn1c(=O)c2cnc(Nc3ccc(N4CCN(C)CC4)cc3)nc2n1-c1cccc(C(C)(C)O)n1 [AZD1775] (first compound max 10 µM, partner max 1 µM)	0.43	0.886	0.487	0.209	0.838	0.814	0.466	0.762	0.899	0.721	0.415	0.942
Cc1cc2ncnn2cc1Nc1ncc2c(n1)n(C1CCOCC1)c(=O)n2C [AZD7648] + CCN(CCO)CCCOc1ccc2c(Nc3cc(CC(=O)Nc4cccc(F)c4)[nH]n3)ncnc2c1 [AZD2811] (first compound max 10 µM, 7x7, partner max 1 µM)	0.467	0.232	0.336	0.242	0.353	0.63	0	0.39	0.7	0.348	0.316	0.6
Cc1cc2ncnn2cc1Nc1ncc2c(n1)n(C1CCOCC1)c(=O)n2C [AZD7648] + CN(C)CCCOc1ccc(-c2ccc3ncc4c(c3c2)n(C2CCOCC2)c(=O)n4C)cn1 [AZD0156] (first compound max 10 µM, 7x7, partner max 1 µM)	0.384	0.23	0.251	0.288	0.216	0.329	0	0.374	0.622	0.348	0.244	0.265
Cc1cc2ncnn2cc1Nc1ncc2c(n1)n(C1CCOCC1)c(=O)n2C [AZD7648] + C[C@@H]1COCCN1C2=NC(=NC(=C2)C3(CC3)[S@](=N)(=O)C)C4=C5C=CNC5=NC=C4 [AZD6738] (first compound max 10 µM, 7x7, partner max 10 µM)	0.439	0.814	0.539	0.267	0.927	0.666	0.234	0.778	0.842	0.788	0.77	0.947
Cc1cc2ncnn2cc1Nc1ncc2c(n1)n(C1CCOCC1)c(=O)n2C [AZD7648] + O=C(c1cc(Cc2n[nH]c(=O)c3ccccc23)ccc1F)N1CCN(C(=O)C2CC2)CC1 [Olaparib] (first compound max 10 µM, 7x7, partner max 10 µM)	0.246	0.508	0.258	0.177	0.197	0.363	0.155	0.261	0.624	0.252	0.17	0.346
CC(=O)c1c(C)c2cnc(Nc3ccc(N4CCNCC4)cn3)nc2n(C2CCCC2)c1=O [Palbociclib] + CN(CC[C@H](CSC1=CC=CC=C1)NC2=C(C=C(C=C2)S(=O)(=O)NC(=O)C3=CC=C(C=C3)N4CCC(CC4)[C@H](C5=CC=CC=C5C6=CC=C(C=C6)Cl)O)S(=O)(=O)C(F)(F)F)CCO [AZD4320] (first compound max 10 µM, 7x7, partner max 1 µM)	0.377	0.917	0.497	–	0.303	0.839	0.0747	0.738	0.829	0.257	0.202	–
COc1cc2c(cc1OCCCCCOc1cc3c(cc1OC)C(=O)N1C=C(C)C[C@H]1C=N3)N=C[C@@H]1CC(C)=CN1C2=O [SG3199] + O=C(c1cc(Cc2n[nH]c(=O)c3ccccc23)ccc1F)N1CCN(C(=O)C2CC2)CC1 [Olaparib] (first compound max 0.001 µM, 7x7, partner max 10 µM)	0.178	0.356	0.233	0.134	0.0926	0.136	0.272	0.214	0.466	0.139	0.0649	0.341
C[C@@H](c1ccc2nccn2c1)n1nnc2ncc(-c3cnn(C)c3)nc21 [Savolitinib] + CN(CC[C@H](CSC1=CC=CC=C1)NC2=C(C=C(C=C2)S(=O)(=O)NC(=O)C3=CC=C(C=C3)N4CCC(CC4)[C@H](C5=CC=CC=C5C6=CC=C(C=C6)Cl)O)S(=O)(=O)C(F)(F)F)CCO [AZD4320] (first compound max 1 µM, 7x7, partner max 1 µM)	0.0836	0.556	0.189	–	0.236	0.78	0.127	0.409	0.417	0.213	0.22	–

— the supplement of paper PMC11061612
